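A five-concentration, 48-hour dose response in 96-well plates underlies each endpoint, interpolated linearly between surrounding concentrations. The concentration for 50% growth inhibition is given as GI50.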 Calls of active or inactive are those of the source. Cut-off read from the data, not from the text of the source: active = GI50 up to about 1.1 µM and inactive = higher.
Key:
Test in all cases: inhibition of tumour cell growth, NCI panel, 48 h
786-0 = system: 786-0
A498 = system: A498
A549 = system: A549
ACHN = system: ACHN
BT-549 = system: BT-549
CAKI-1 = system: CAKI-1
CCRF-CEM = system: CCRF-CEM
COLO 205 = system: COLO 205
DU-145 = system: DU-145
EKVX = system: EKVX
HCC 2998 = system: HCC 2998
HCT-116 = system: HCT-116
HCT-15 = system: HCT-15
HL-60 = system: HL-60
HOP-62 = system: HOP-62
HT-29 = system: HT-29
Hs-578T = system: Hs-578T
IGROV-1 = system: IGROV-1
K562 = system: K562
KM12 = system: KM12
LOX IMVI = system: LOX IMVI
M14 = system: M14
MCF7 = system: MCF7
MDA-MB-231 = system: MDA-MB-231
MDA-MB-435 = system: MDA-MB-435
MDA-N = system: MDA-N
MOLT-4 = system: MOLT-4
Malme-3M = system: Malme-3M
NCI-H226 = system: NCI-H226
NCI-H23 = system: NCI-H23
NCI-H460 = system: NCI-H460
NCI-H522 = system: NCI-H522
NCI/ADR-RES = system: NCI/ADR-RES
OVCAR-3 = system: OVCAR-3
OVCAR-4 = system: OVCAR-4
OVCAR-5 = system: OVCAR-5
OVCAR-8 = system: OVCAR-8
PC-3 = system: PC-3
RPMI-8226 = system: RPMI-8226
RXF 393 = system: RXF 393
SF-268 = system: SF-268
SF-295 = system: SF-295
SF-539 = system: SF-539
SK-MEL-28 = system: SK-MEL-28
SK-MEL-2 = system: SK-MEL-2
SK-MEL-5 = system: SK-MEL-5
SK-OV-3 = system: SK-OV-3
SN12C = system: SN12C
SNB-19 = system: SNB-19
SNB-75 = system: SNB-75
SR = system: SR
SW-620 = system: SW-620
T47D = system: T47D
TK-10 = system: TK-10
U-251 = system: U-251
UACC-257 = system: UACC-257
UACC-62 = system: UACC-62
UO-31 = system: UO-31
HOP-92 = system: HOP-92

## O=C(NNC(=O)c1ccccc1O)c1cccc(Br)c1
786-0
  GI50: 44.9 µM (inactive)
A498
  GI50: > 92.9 µM (inactive)
A549
  GI50: 25.5 µM (inactive)
ACHN
  GI50: 7 µM (inactive)
BT-549
  GI50: > 100 µM (inactive)
CAKI-1
  GI50: 24.3 µM (inactive)
CCRF-CEM
  GI50: 0.512 µM (active)
COLO 205
  GI50: 38.7 µM (inactive)
DU-145
  GI50: 30.2 µM (inactive)
EKVX
  GI50: 23.6 µM (inactive)
HCC 2998
  GI50: 17.7 µM (inactive)
HCT-116
  GI50: 24.1 µM (inactive)
HCT-15
  GI50: 6.85 µM
HL-60
  GI50: 5.82 µM (inactive)
HOP-62
  GI50: 56.8 µM (inactive)
HT-29
  GI50: 43 µM (inactive)
Hs-578T
  GI50: > 66.7 µM (inactive)
IGROV-1
  GI50: 18.3 µM (inactive)
K562
  GI50: 46.7 µM (inactive)
KM12
  GI50: > 42.6 µM (inactive)
LOX IMVI
  GI50: 15.2 µM (inactive)
M14
  GI50: 26.9 µM (inactive)
MCF7
  GI50: 6.71 µM (inactive)
MDA-MB-231
  GI50: 18.2 µM (inactive)
MDA-MB-435
  GI50: 37.9 µM (inactive)
MDA-N
  GI50: > 57.5 µM (inactive)
MOLT-4
  GI50: 9.23 µM (inactive)
Malme-3M
  GI50: 37.2 µM (inactive)
NCI-H226
  GI50: 23.2 µM (inactive)
NCI-H23
  GI50: > 100 µM (inactive)
NCI-H460
  GI50: 8.43 µM (inactive)
NCI-H522
  GI50: 6.25 µM (inactive)
NCI/ADR-RES
  GI50: 21.1 µM (inactive)
OVCAR-3
  GI50: 8.47 µM (inactive)
OVCAR-4
  GI50: 45.5 µM (inactive)
OVCAR-5
  GI50: > 100 µM (inactive)
OVCAR-8
  GI50: 20.9 µM (inactive)
PC-3
  GI50: 44.8 µM (inactive)
RPMI-8226
  GI50: 15.2 µM (inactive)
RXF 393
  GI50: > 100 µM (inactive)
SF-268
  GI50: 24.9 µM (inactive)
SF-295
  GI50: 27.3 µM (inactive)
SF-539
  GI50: > 70 µM (inactive)
SK-MEL-28
  GI50: > 91.8 µM (inactive)
SK-MEL-2
  GI50: > 70 µM (inactive)
SK-MEL-5
  GI50: 24.2 µM (inactive)
SK-OV-3
  GI50: 54.1 µM (inactive)
SN12C
  GI50: 98.9 µM (inactive)
SNB-19
  GI50: 73.6 µM (inactive)
SNB-75
  GI50: > 71.8 µM (inactive)
SR
  GI50: 12.9 µM (inactive)
SW-620
  GI50: 35 µM (inactive)
T47D
  GI50: > 51.6 µM (inactive)
TK-10
  GI50: > 100 µM (inactive)
U-251
  GI50: > 100 µM (inactive)
UACC-257
  GI50: > 77.6 µM (inactive)
UACC-62
  GI50: 47.3 µM (inactive)
UO-31
  GI50: 10.7 µM (inactive)

## CCOc1cc(-c2nc3ccccn3c2/N=C/c2cc([N+](=O)[O-])cc([N+](=O)[O-])c2O)ccc1O
786-0
  GI50: > 100 µM (inactive)
A498
  GI50: > 100 µM (inactive)
A549
  GI50: > 100 µM (inactive)
ACHN
  GI50: > 100 µM (inactive)
BT-549
  GI50: > 100 µM (inactive)
CAKI-1
  GI50: > 100 µM (inactive)
CCRF-CEM
  GI50: 45 µM (inactive)
COLO 205
  GI50: > 100 µM (inactive)
DU-145
  GI50: > 100 µM (inactive)
EKVX
  GI50: > 100 µM (inactive)
HCT-116
  GI50: > 100 µM (inactive)
HCT-15
  GI50: > 100 µM
HL-60
  GI50: > 100 µM (inactive)
HOP-62
  GI50: > 100 µM (inactive)
HOP-92
  GI50: > 100 µM (inactive)
HT-29
  GI50: > 100 µM (inactive)
Hs-578T
  GI50: > 100 µM (inactive)
IGROV-1
  GI50: > 100 µM (inactive)
K562
  GI50: > 100 µM (inactive)
KM12
  GI50: > 100 µM (inactive)
LOX IMVI
  GI50: > 100 µM (inactive)
M14
  GI50: > 100 µM (inactive)
MCF7
  GI50: > 100 µM (inactive)
MDA-MB-231
  GI50: > 100 µM (inactive)
MDA-MB-435
  GI50: > 100 µM (inactive)
MDA-N
  GI50: > 100 µM (inactive)
MOLT-4
  GI50: > 100 µM (inactive)
Malme-3M
  GI50: > 100 µM (inactive)
NCI-H23
  GI50: > 100 µM (inactive)
NCI-H460
  GI50: > 100 µM (inactive)
NCI-H522
  GI50: > 100 µM (inactive)
NCI/ADR-RES
  GI50: > 100 µM (inactive)
OVCAR-3
  GI50: > 100 µM (inactive)
OVCAR-4
  GI50: > 100 µM (inactive)
OVCAR-5
  GI50: > 100 µM (inactive)
OVCAR-8
  GI50: > 100 µM (inactive)
PC-3
  GI50: > 100 µM (inactive)
RPMI-8226
  GI50: > 100 µM (inactive)
RXF 393
  GI50: > 100 µM (inactive)
SF-268
  GI50: > 100 µM (inactive)
SF-295
  GI50: > 100 µM (inactive)
SF-539
  GI50: > 100 µM (inactive)
SK-MEL-28
  GI50: > 100 µM (inactive)
SK-MEL-2
  GI50: > 100 µM (inactive)
SK-MEL-5
  GI50: > 100 µM (inactive)
SK-OV-3
  GI50: > 100 µM (inactive)
SN12C
  GI50: > 100 µM (inactive)
SNB-19
  GI50: > 100 µM (inactive)
SNB-75
  GI50: 88.1 µM (inactive)
SR
  GI50: > 100 µM (inactive)
SW-620
  GI50: > 100 µM (inactive)
T47D
  GI50: > 100 µM (inactive)
TK-10
  GI50: > 100 µM (inactive)
U-251
  GI50: > 100 µM (inactive)
UACC-257
  GI50: > 100 µM (inactive)
UACC-62
  GI50: > 100 µM (inactive)
UO-31
  GI50: > 100 µM (inactive)

— ChEMBL document CHEMBL1201862, “PubChem BioAssay data set” (2004)
